In data set [1] the target is T1, Mu-His-Ser-Ser-Lys-Leu-Gln—AFC (Homo sapiens, UniProt P07288).
T1 construct: The 237 amino acid protein (25-261) were used in the studies that include PSA as described herein; from tissue; host or cells: human seminal plasma (f-PSA); human prostate cancer tissue specimens (T-PSA)
Description: Enzymatic activity of isolated PSA, hydrolysis of fluorogenic substrate. Type of data set: biochemical. The following applies: fluorogenic substrate hydrolysis. On the procedure:
In particular, enzymatic activity of PSA isolated from human seminal plasma (f-PSA) and from human prostate cancer tissue specimens (Tissue-PSA: T-PSA) was evaluated routinely using a substrate (Mu-His-Ser-Ser-Lys-Leu-Gln—AFC) (SEQ ID NO:102) (Calbiochem) that is highly specific for PSA. […] PSA in the tissue microenvironment (T-PSA) is largely free and enzymatically active. T-PSA levels are lower in advanced prostate cancer than benign prostate, and T-PSA levels correlate with prognosis in prostate cancer, as well as in breast cancer; the higher the T-PSA level, the better the prognosis.
Hydrolysis of the fluorogenic substrate was quantitated using a LS-45 Luminescence Spectrometer from Perkin Elmer) using the FL-Winlab® program. Human prostate cancer tissue specimens were obtained from the Pathology Resource Network at Roswell Park Cancer Institute under an IRB approved protocol.

Data set [2] concerns VEGF gene expression in HUVEC. Description: VEGF gene expression in HUVEC, Real-time QPCR. The following applies: 10 uM, average of three experiments. Type of data set: cell-based, human. As to the method:
FIG. 17 is a graphical representation of data showing modulation of VEGF gene expression in HUVEC by f-PSA, PSA-P3L and PSA-P3C. To produce the results summarized in FIG. 17, nearly confluent monolayers of HUVEC were treated with 10 uM of f-PSA or PSA-P3L; RNA extracted and reverse transcribed. The c-DNA was amplified by Real-time QPCR using specific primers. The results shown are average of three experiments. […] The data represents an average of three experiments. […] Thus, in one embodiment, the invention provides a method for inhibiting VEGF expression in human endothelial cells comprising contacting the cells with one or more peptides of the invention.

For data set [3], the system named is HUVEC. The data set can be described thus: Matrigel endothelial tube formation assay. The following applies: for anti-angiogenic activity, inhibition of tube formation by HUVEC in Matrigel: 10 uM, 18 hr, FIGS. 14, 19, 20. Type of data set: cell-based, human. From the text: The 3-D model of human PSA, the amino acid sequence of the initial five candidate peptides, and their color-coded location on the exterior of the PSA protein molecule in aqueous solution, are presented in FIG. 8. Five PSA-mimetic peptides with >90% purity were acquired from GeneScript Corporation, Piscataway, N.J., and tested for anti-angiogenic activity against HUVECs in the Matrigel tube formation assay with intact PSA as the control (FIGS. 9 &10). Briefly, to perform these assays, 10^4 HUVEC cells are mixed with the PSA mimetic peptide, and, the mixture placed on top of a solidified, pre-poured Matrigel layer in a flat bottomed well of a multi-chambered plate, and the culture incubated for 16-18 hr to allow time for the endothelial cells to migrate and form tubular structures. At the conclusion of the incubation, digital images were made from the center of each culture to avoid bias, and 3-4 wells for each test condition were imaged. The images are processed under the Analyze 7.0 and “Angioquant” software packages, for imaging and quantification. The total length of tubular structures in the image is determined, and averaged over the replicate cultures. This method of quantification allows for accurate, unbiased measurement of tube lengths. Peptides having each of the peptide sequences shown in FIG. 8 are encompassed within the scope of the invention, including all modifications and substitutions to the sequences as described supra.
The experimental endpoint, measured by digital image analysis, is the total area of the image comprised of endothelial cells (tubes). […] While the reason for the decrease in the amount of anti-angiogenic activity in this figure when the concentration of the peptides is increased from 10 to 100 μM is not clear, it may be related to a dosing response observed in this case. […] FIG. 10 presents the evaluation of anti-angiogenic activity for peptides #1 and #3 relative to the level of inhibition by native PSA, averaged over multiple experiments with different parental populations of HUVEC cells. Across multiple sets of experiments, both peptides inhibited the angiogenic activity of HUVEC by 35-40% relative to native PSA.
FIG. 13 is a graphical representation of data showing anti-angiogenic activity of f-PSA, PSA-P3L, and PSA-P3C by inhibiting tube formation by HUVEC in a Matrigel assay. To produce the results summarized in FIG. 13, a 24-well tissue culture plate was coated with 200 ul/well of Matrigel and incubated for 30 min at 37 C. Approximately 80,000 HUVEC in 0.5 ml of media supplemented with f-PSA or PSA-P3L, PSA-P3C was applied on top of the Matrigel layer and cells were incubated for 18 hr at 37 C foe endothelial cell tube formation. Live cell images (4× magnification) were taken using Nikon Eclipse TE300 inverted microscope system and analyzed using Spot Advance software program. Five images were taken/well. The images were processed further using Analyze 7.0 (AnalyzeDirect, Inc., Overland Park, Kans.) and Angioquant v1.33 to obtain the average tube length for each image. Percent inhibition is expressed in relation to tube length in untreated control cells.

The test system of data set [4] is PC-3M cells. Description: Gene expression array and QPCR analysis of PC-3M cells treated with PSA. Type of data set: cell-based, human. From the text: PSA purified to homogeneity from human seminal plasma is enzymatically active, and free of contaminating hk2, and complexes with carrier proteins/chaperones (Bindukumar, B., et al., J Chromatogr B Analyt Technol Biomed Life Sci, 2004. 813(1-2): p. 113-20).

In data set [5] the test system is PC-3M cells. Description: Proteomic profiling (2D-DIGE, HPLC-MS/MS) of PC-3M cells treated with PSA. Type of data set: cell-based, human. The following applies: PSA treatment. From the text:
This Example provides an illustration of proteomic profiling of the effect of PSA on human prostate cancer cells. In this regard, a proteomic approach was employed to identify proteins whose expression was modulated in PC-3M cells treated with PSA. […] Proteins from 26 gel spots were identified [FIG. 2]. […] Specificity of PSA modulation of differential expression of these genes in PC-3M cells was validated at the gene level by RT-QPCR [FIG. 3].

Data set [6] relates to FLT1 gene expression in HUVEC. The data set can be described thus: FLT1 gene expression in HUVEC, Real-time QPCR. Type of data set: cell-based, human. The following applies: 10 uM, average of three experiments. On the procedure: FIG. 15 is a graphical representation of data showing modulation of FLT1 gene expression in HUVEC by f-PSA and PSA-P31. […] To obtain the data summarized in this figure, nearly confluent monolayers of HUVEC were treated with 10 uM of f-PSA or PSA-P3L; RNA extracted and reverse transcribed. The c-DNA was amplified by Real-time QPCR using specific primer. The results shown are average of three experiments.

The mark [7] stands for this setting: PC-3M cells versus LNCaP cells treated with 10 μM PSA.

T1 sequence (P07288 25-261): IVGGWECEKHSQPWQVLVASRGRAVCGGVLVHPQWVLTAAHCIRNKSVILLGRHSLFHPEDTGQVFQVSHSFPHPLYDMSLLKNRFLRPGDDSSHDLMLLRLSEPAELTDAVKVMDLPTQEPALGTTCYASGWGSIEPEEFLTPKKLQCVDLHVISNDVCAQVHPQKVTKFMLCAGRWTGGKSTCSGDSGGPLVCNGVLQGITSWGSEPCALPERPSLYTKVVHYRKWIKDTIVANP

As to “f-PSA: PSA isolated from human seminal plasma, free and enzymatically active; 237 amino acid protein (residues 25-261)”, the “enzymatic activity in the assay” value in data set [1] is listed as “demonstrated enzymatic activity”. Also, the VEGF gene expression result in data set [2] was “significantly down-regulate”. Moreover, in data set [3], the “anti-angiogenic activity, inhibition of tube formation by HUVEC in Matrigel” value was “significant anti-angiogenic activity”. Also, the “anti-angiogenic activity, inhibition of tube formation by HUVEC in Matrigel” value in data set [3] (listed as PSA) is on record as “significantly inhibit”. Moreover, the “inhibitory activity on endothelial tube formation” value in data set [3] (equi-molar concentrations of f-PSA and T-PSA) is given as “equivalent inhibitory activity”. Further, in data set [4] (setting [7]), the “genes down-regulated (gene expression array)” value came out at 137 and the “genes up-regulated (gene expression array)” value came out at 136. In data set [4] (PC-3M cells, 10 μM PSA), the “expression of IFN-γ and interferon related genes incl. 2,5 oligo-adenylated synthetase-2 (QPCR)” value is “up-regulated”; the “expression of uPA, VEGF, cysteine-rich angiogenic inducer-61, EphA2, TGF-β2 (QPCR)” value was “significantly down-regulated”. Moreover, the “proteins significantly changed (p<0.05) in abundance” value in data set [5] was determined as 41. The FLT1 gene expression result in data set [6] was “effectively inhibit”.

Values taken from US10034913B2, “Anti-angiogenic peptides and uses thereof” (Health Research, Inc., priority 2011, dated 2018).
